# Assay results published in patent US20090053168A1, “TREATMENTS OF B-CELL PROLIFERATIVE DISORDERS” (priority 2007, published 2009).
# “And” between values parts separate entries of the source, which are not always exact repeats. Equal entries are not always repeated. Where two headings read alike, the source gives them in different places.
# Tests used:
# EJM cells = test: Anti-proliferation assay (ATPLite, 72 h), EJM; assay type: cell-based
# MOLP-8 cells = test: Anti-proliferation assay (ATPLite, 72 h), MOLP-8; assay type: cell-based; details: in combination with CGS-21680
# Karpas 422 DLBCL cells = test: Anti-proliferation assay (ATPLite, 72 h), Karpas 422; assay type: cell-based; details: in combination with CGS-21680
# RPMI-8226 cells = test: Anti-proliferation assay (ATPLite, 72 h), RPMI-8226; assay type: cell-based; details: in combination with ADAC; RPMI-8226
# KSM-12-PE cells = test: Anti-proliferation assay (ATPLite, 72 h), KSM-12-PE; assay type: cell-based
# H929 cells = test: Anti-proliferation assay (ATPLite, 72 h), H929; assay type: cell-based
# [1] = test system: chronic lymphocytic leukemia (CLL) cells; test: Apoptosis assay (Hoechst 33342 flow cytometry, 48 h) on patient CLL cells; assay type: cell-based, human
# Text: Patients with active infections or other serious medical conditions were not included in this study. Patients with white blood cell counts of less than 15,000/μl by automated analysis were excluded from this study. Whole blood was layered on Ficoll-Hystopaque (Sigma), and peripheral blood mononuclear cells (PBMC) isolated after centrification. […] One million cells were stained with anti-CD5-PE and anti-CD19-PE-Cy5 (Becton […].). The percentage of B-CLL cells was defined as the percentage of cells doubly expressing CD5 and CD19, as determined by flow cytometry. […] Compound master plates were diluted 1:50 into complete media to create working compound dilutions. Compound crosses were then created by diluting two working dilution plates 1:10 into each plate of cells. […] Hoechst 33342 (Molecular Probes, Eugene Oreg.) at a final concentration of 0.25 μg/mL was added to each well and the cells incubated at 37° C. for an additional ten minutes before being placed on ice until analysis. Plates were then analyzed on a LSR-II flow cytometer (Becton Dickenson, Franklin Lakes, N.J.) equipped with the High Throughput Sampling (HTS) option in high throughput mode. […] The apoptotic fraction was calculated using FlowJo software (Tree Star Inc., Ashland, Oreg.) after excluding debris by a FSC/SSC gate and subsequently gating for cells that accumulate the Hoechst dye.
# MM.1S cells [2] = test: Anti-proliferation assay (ATPLite, 72 h), MM.1S
# SU-DHL6 DLBCL cells = test: Anti-proliferation assay (ATPLite, 72 h), SU-DHL6; assay type: cell-based; details: in combination with CGS-21680
# ANBL-6 cells = test: Anti-proliferation assay (ATPLite, 72 h), ANBL-6; assay type: cell-based; details: in combination with CGS-21680
# MM.1S cells [3] = test system: MM.1S cells
# OCI-ly10 DLBCL cells = test: Anti-proliferation assay (ATPLite, 72 h), OCI-ly10; assay type: cell-based; details: in combination with CGS-21680
# OPM2 cells = test: Anti-proliferation assay (ATPLite, 72 h), OPM2; assay type: cell-based, human; details: in combination with CGS-21680; OPM-8
# MM.1R cells = test: Anti-proliferation assay (ATPLite, 72 h), MM.1R; assay type: cell-based; details: in combination with ADAC; MM.1R
# [4] = test system: mantle cell lymphoma cell line Mino; test: Anti-proliferation assay (ATPLite, 72 h), Mino; assay type: cell-based, human; details: in combination with HE-NECA; Mino
# Method: (§1) All of the cell lines were cultured in RPMI-1640 media supplemented with 10% FBS except OCI Ly10 cells (IMDM media supplemented with 20% human serum). The ANBL-6 cell line culture media also contained 10 ng/ml IL-6. MM.1S, MM.1R, SU-DHL6, Karpas 422, and OCI ly10 cells were provided by the Dana Farber Cancer Institute. ANBL-6 cells were provided by Bob Orlowsli (M.D. Anderson Cancer Research Center). H929, RPMI-8226, GA-10, Farage, Mino, JVM-13, Pfeiffer, Toledo, and Kusami-1 cells were from ATCC (Cat #'s CCL-155, CRL-9068, CRL-2392 CRL-2630, CRL-3000, CRL-3003, CRL-2632, CRL-2631, and CRL-2724 respectively). MOLP-8, OPM2, EJM, and KSM-12-PE cells were from DSMZ.
# (§2) Compounds were prepared in DMSO at 1000× the highest desired concentration. Master plates were generated consisting of serially diluted compounds in 2- or 3-fold dilutions in 384-well format. For single agent dose response curves, the master plates consisted of 9 individual compounds at 12 concentrations in 2- or 3-fold dilutions. For combination matrices, master plates consisted of individual compounds at 6 or 9 concentrations at 2- or 3-fold dilutions.
# (§3) The average untreated well value (avg. untreated wells) is the arithmetic mean of 40 wells from the same assay plate treated with vehicle alone. Negative inhibition values result from local variations in treated wells as compared to untreated wells.
# (§4) The uncertainty of each fitted parameter was estimated from the range over which the change in reduced chi-squared was less than one, or less than minimum reduced chi-squared if that minimum exceeded one, to allow for underestimated σI errors.
# (§5) Single agent curve data were used to define a dilution series for each compound to, be used for combination screening in a 6×6 matrix format. […] For compounds with no detectable single agent activity, a dilution factor of 4 was used, starting from the highest achievable concentration.
# (§6) The Loewe additivity model was used to quantify combination effects. Combinations were ranked initially by Additivity Excess Volume, which is defined as ADD Volume=ΣCX, CY(Idata−ILoewe). where ILoewe(CX,CY) is the inhibition that satisfies (CX/ECX)+(CY/ECY)=1, and ECX,Y are the effective concentrations at ILoewe for the single agent curves. A “Synergy Score” was also used, where the Synergy Score S=log fX log fY ΣIdata (Idata−ILoewe), summed over all non-single-agent concentration pairs, and where log fX,Y is the natural logarithm of the dilution factors used for each single agent.
# [5] = test system: Kasumi-1 (acute myelogenous leukemia) cells; test: Anti-proliferation assay (ATPLite, 72 h), Kasumi-1; assay type: cell-based; details: in combination with HE-NECA
# Method: as §1, §2
# (§7) The average untreated well value (avg. untreated wells) is the arithmetic mean of 40 wells from the same assay plate treated with vehicle alone. […]
# (§8) The Loewe additivity model was used to quantify combination effects. […]
# [6] = test system: mantle cell lymphoma cell line JVM-13; test: Anti-proliferation assay (ATPLite, 72 h), JVM-13; assay type: cell-based, human; details: in combination with HE-NECA; JVM-13
# Method: as §1, §2, §3, §4, §5, §6
# [7] = test system: Pfeiffer (diffuse large B cell lymphoma) cells; test: Anti-proliferation assay (ATPLite, 72 h), Pfeiffer; assay type: cell-based; details: in combination with HE-NECA
# Method: as §1, §2, §7, §8
compound,measurement,setting,value
C[C@@H]1C[C@H]2[C@@H]3CCC4=CC(=O)C=C[C@]4(C)[C@@]3(F)[C@@H](O)C[C@]2(C)[C@@]1(O)C(=O)CO [dexamethasone],synergy score,EJM cells; in combination with CGS-21680,5.32
same,synergy score,MOLP-8 cells,4.86
same,synergy score,Karpas 422 DLBCL cells,4.32
same,synergy score,RPMI-8226 cells,4.71
same,synergy score,"KSM-12-PE cells; in combination with CGS-21680, KSM-12-PE",1.27
same,synergy score,"H929 cells; in combination with ADAC, H929",7.09
same,Induction of CLL cell apoptosis,"[1]; Patient #1, Dexamethasone 1 nM alone",9.3%
same,Induction of CLL cell apoptosis,"[1]; Patient #1, Dexamethasone 10 nM alone",33%
same,Induction of CLL cell apoptosis,"[1]; Patient #1, Dexamethasone 100 nM alone",56%
same,Induction of CLL cell apoptosis,"[1]; Patient #2, Dexamethasone 8.4 nM alone",8.4%
same,Induction of CLL cell apoptosis,"[1]; Patient #2, Dexamethasone 11 nM alone",11%
same,Induction of CLL cell apoptosis,"[1]; Patient #2, Dexamethasone 36 nM alone",36%
same,Induction of CLL cell apoptosis,"[1]; Patient #2, Dexamethasone 50 nM alone",50%
same,"apoptosis, CLL cells patient 1","[1]; patient 1, 48 hours",33%
same,"apoptosis, CLL cells patient #2","[1]; patient #2, 48 hours",27%
same,percent inhibition of cell proliferation,"MM.1S cells [2]; DEX 0.0462 nM, Cl-IB-MECA 0 nM, MM.1S, 72 h",12%
same,percent inhibition of cell proliferation,"MM.1S cells [2]; DEX 0.139 nM alone, listed as DEX",1.8% and 10%
same,percent inhibition of cell proliferation,"MM.1S cells [2]; DEX 0.139 nM, Cl-IB-MECA 0 nM, MM.1S, 72 h",0.78%
same,percent inhibition of cell proliferation,MM.1S cells [2]; DEX 0.416 nM alone,8.3%
same,percent inhibition of cell proliferation,"MM.1S cells [2]; DEX 1.85 nM alone, listed as DEX",14% and 27%
same,percent inhibition of cell proliferation,"MM.1S cells [2]; DEX 1.85 nM, CCPA 0 μM, MM.1S, 72 h",13%
same,percent inhibition of cell proliferation,MM.1S cells [2]; DEX 3.74 nM alone,32%
same,percent inhibition of cell proliferation,"MM.1S cells [2]; DEX 3.74 nM, Cl-IB-MECA 0 nM, MM.1S, 72 h",22%
same,percent inhibition of cell proliferation,"MM.1S cells [2]; DEX 5.56 nM alone, listed as DEX",20% and 30% and 33%
same,percent inhibition of cell proliferation,"MM.1S cells [2]; DEX 5.56 nM, CCPA 0 μM, MM.1S, 72 h",36%
same,percent inhibition of cell proliferation,"MM.1S cells [2]; DEX 11.2 nM alone, listed as DEX",28% and 54%
same,percent inhibition of cell proliferation,"MM.1S cells [2]; DEX 11.2 nM, Cl-IB-MECA 0 nM, MM.1S, 72 h",29%
same,percent inhibition of cell proliferation,"MM.1S cells [2]; DEX 33.7 nM alone, listed as DEX",48% and 64%
same,percent inhibition of cell proliferation,"MM.1S cells [2]; DEX 33.7 nM, Cl-IB-MECA 0 nM, MM.1S, 72 h",56%
same,percent inhibition of cell proliferation,MM.1S cells [2]; DEX 0.0378 μM alone,61%
same,percent inhibition of cell proliferation,"MM.1S cells [2]; DEX 50 nM alone, listed as DEX",55% and 79% and 70%
same,percent inhibition of cell proliferation,"MM.1S cells [2]; DEX 50 nM, CCPA 0 μM, MM.1S, 72 h",72%
same,percent inhibition of cell proliferation,"MM.1S cells [2]; DEX 101 nM alone, listed as DEX",64% and 68%
same,percent inhibition of cell proliferation,"MM.1S cells [2]; DEX 101 nM, Cl-IB-MECA 0 nM, MM.1S, 72 h",67%
same,percent inhibition of cell proliferation,MM.1S cells [2]; DEX 0.113 μM alone,76%
same,percent inhibition of cell proliferation,"MM.1S cells [2]; DEX 150 nM alone, listed as DEX",73% and 87% and 80%
same,percent inhibition of cell proliferation,"MM.1S cells [2]; DEX 150 nM, CCPA 0 μM, MM.1S, 72 h",76%
same,percent inhibition of cell proliferation,MM.1S cells [2]; DEX 303 nM alone,70%
same,percent inhibition of cell proliferation,MM.1S cells [2]; DEX 0.34 μM alone,78%
same,percent inhibition of cell proliferation,MM.1S cells [2]; DEX 1.02 μM alone,82%
same,percent inhibition of cell proliferation,MM.1S cells [2]; DEX 0.0462. nM alone,−2.5%
same,percent inhibition of cell proliferation,MM.1S cells [2]; DEX 0.4.16 nM alone,−5.2%
same,percent inhibition of cell proliferation,"MM.1S cells [2]; DEX 0.4.16 nM, Cl-IB-MECA 0 nM, MM.1S, 72 h",4.5%
same,percent inhibition of cell proliferation,MM.1S cells [2]; DEX 3.74. nM alone,18%
same,percent inhibition of cell proliferation,"MM.1S cells [2]; DEX […], Cl-IB-MECA 0 nM, MM.1S, 72 h",9.7%
same,change in IC50 when cultured in the presence of IL-6,"MM.1S cells [2]; MM.1S, 72 hours, 10 ng/ml IL-6 vs no IL-6",2.9 fold
same,synergy score,"MM.1S cells [2]; in combination with ADAC, MM.1S",1.98
same,synergy score,"MM.1S cells [2]; in combination with CGS-21680, MM.1S",8.06
same,synergy score,SU-DHL6 DLBCL cells,4.85
same,synergy score,ANBL-6 cells,1.25
same,inhibition,MM.1S cells [3],47% and 36% and 60% and 48%
same,synergy score,OCI-ly10 DLBCL cells,4.21
same,synergy score,OPM2 cells,2.85
same,synergy score,MM.1R cells,0.33
COC1=C2C[C@@H](C)C[C@H](OC)[C@H](O)[C@@H](C)/C=C(\C)[C@H](OC(N)=O)[C@@H](OC)/C=C\C=C(/C)C(=O)NC(=CC1=O)C2=O [geldanomycin],synergy score,EJM cells; in combination with HE-NECA,1.48
same,synergy score,"KSM-12-PE cells; in combination with HE-NECA, KSM-12_PE",1.37
same,synergy score,H929 cells,1.82
same,synergy score,MM.1S cells [2],2.2
same,synergy score,[4],1.27
same,synergy score,[5],2.47
same,synergy score,[6],1.84
same,synergy score,[7],2.1
